Target: T1, Fructose-1,6-bisphosphatase 1 (Homo sapiens, UniProt P09467)
T1 sequence (P09467 whole entry): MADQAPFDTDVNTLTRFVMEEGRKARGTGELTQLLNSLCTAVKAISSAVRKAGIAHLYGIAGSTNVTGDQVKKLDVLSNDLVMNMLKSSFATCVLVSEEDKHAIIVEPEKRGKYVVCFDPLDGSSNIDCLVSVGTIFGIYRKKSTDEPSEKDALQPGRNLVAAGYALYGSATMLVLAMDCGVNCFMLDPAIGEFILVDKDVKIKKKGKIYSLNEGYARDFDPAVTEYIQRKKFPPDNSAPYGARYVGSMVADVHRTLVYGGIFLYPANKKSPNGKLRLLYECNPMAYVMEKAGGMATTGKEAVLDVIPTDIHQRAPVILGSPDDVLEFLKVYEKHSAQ
Experiment: Concentration required to inhibit the human liver recombinant fructose-1,6-bisphosphatase.

Compound | IC50 [µM]
COc1cc2ncnc(Nc3ccc(F)c(Cl)c3)c2cc1OC | 0.29
CCOc1cc2nc(CN(CC)CC)nc(Nc3cccc(Br)c3)c2cc1OCC | > 10
CCOc1cc2nc(Cc3ccccc3)nc(Nc3cccc(Br)c3)c2cc1OCC | > 10
O=C(O)c1ccc2c(Nc3cccc(Br)c3)ncnc2c1 | > 10
COc1cc2ncnc(Nc3cccc(Cl)c3)c2cc1OC [TYRPHOSTIN AG-1478] | 1.3
C#Cc1cccc(Nc2ncnc3cc(OC)c(OC)cc23)c1 | 0.9
COc1cc2nc(C)nc(Nc3cccc(Br)c3)c2cc1OC | 4.5
COc1cc2ncnc(Nc3cccc(Br)c3)c2cc1[N+](=O)[O-] | > 10
CCCCOc1ccc2ncnc(Nc3cccc(Br)c3)c2c1 | > 10
Nc1cc2c(Nc3cccc(Br)c3)ncnc2cc1Cl | 11.9
CCOc1cc2nc(-c3ccccc3)nc(Nc3cccc(Br)c3)c2cc1OCC | > 10
C#Cc1cc(Nc2ncnc3cc(OC)c(OC)cc23)ccc1F | 0.25
CCOc1cc2nc(CN3CCOCC3)nc(Nc3cccc(Br)c3)c2cc1OCC | > 10
Brc1cccc(Nc2ncnc3cc4ccccc4cc23)c1 | 7.5
COCCOc1ccc2ncnc(Nc3cccc(Br)c3)c2c1 | 2.9
O=[N+]([O-])c1cc2c(Nc3cccc(Br)c3)ncnc2cc1Cl | > 10
Brc1cccc(Nc2ncnc3cc4nc[nH]c4cc23)c1 | 4
CCN(CC)c1nc(Nc2cccc(Br)c2)c2cc(OC)c(OC)cc2n1 | > 10
CC(C)Oc1ccc2ncnc(Nc3cccc(Br)c3)c2c1 | > 10

Results, then the compound that gave them:

IC50 [µM] | Compound
5.5 | COCCOc1cc2c(Nc3cccc(Br)c3)ncnc2cc1OC
0.53 | CCOc1cc2ncnc(Nc3ccc(F)c(Cl)c3)c2cc1OCC
> 10 | CCOc1cc2ncnc(Nc3ccc(Cl)c(Cl)c3)c2cc1OCC
> 10 | COCCOc1cc2ncnc(Nc3cccc(Br)c3)c2cc1OCCOC
9.2 | CCOc1cc2ncnc(Nc3cccc(F)c3)c2cc1OCC
1.6 | CCOc1cc2ncnc(Nc3cccc(Cl)c3)c2cc1OCC
> 10 | CCOc1cc2nc(CCl)nc(Nc3cccc(Br)c3)c2cc1OCC
> 10 | CCOc1cc2ncnc(Nc3cccc(C#N)c3)c2cc1OCC
1.7 | CCOc1cc2ncnc(Nc3cccc(Br)c3)c2cc1OCC
> 10 | CCOc1cc2ncnc(Nc3ccc(C)c(Cl)c3)c2cc1OCC
3.6 | CCOc1cc2ncnc(Nc3cccc(Br)c3)c2cc1[N+](=O)[O-]
> 10 | CCOc1cc2ncnc(Nc3ccccc3)c2cc1OCC
2.1 | CCOc1cc2ncnc(Nc3cccc(I)c3)c2cc1OCC
2.4 | C#Cc1cccc(Nc2ncnc3cc(OCC)c(OCC)cc23)c1
> 10 | CCOc1cc2nc(CS(C)(=O)=O)nc(Nc3cccc(Br)c3)c2cc1OCC
> 10 | CCOc1cc2nc(CC(C)C)nc(Nc3cccc(Br)c3)c2cc1OCC

Target: T2, Fructose-1,6-bisphosphatase 1 (Rattus norvegicus, UniProt P19112)
T2 sequence (P19112 whole entry): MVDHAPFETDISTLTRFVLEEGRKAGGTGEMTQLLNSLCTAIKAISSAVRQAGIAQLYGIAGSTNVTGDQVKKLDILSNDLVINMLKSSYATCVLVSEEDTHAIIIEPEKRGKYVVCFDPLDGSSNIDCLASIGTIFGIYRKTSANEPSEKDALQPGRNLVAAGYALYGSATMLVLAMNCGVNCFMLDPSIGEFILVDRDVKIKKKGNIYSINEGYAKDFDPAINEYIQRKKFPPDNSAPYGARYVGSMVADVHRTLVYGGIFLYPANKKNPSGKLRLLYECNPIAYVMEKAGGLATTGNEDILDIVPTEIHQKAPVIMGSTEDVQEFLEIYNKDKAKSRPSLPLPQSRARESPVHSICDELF
Experiment: Compound was evaluated for its concentration required to inhibit the rat liver F16BPase

Compound | IC50 [µM]
COc1cc2ncnc(Nc3ccc(F)c(Cl)c3)c2cc1OC | > 10
COc1cc2ncnc(Nc3cccc(Cl)c3)c2cc1OC [TYRPHOSTIN AG-1478] | > 10
C#Cc1cccc(Nc2ncnc3cc(OC)c(OC)cc23)c1 | > 10
C#Cc1cc(Nc2ncnc3cc(OC)c(OC)cc23)ccc1F | > 10

Second part, the compound after the results:

IC50 [µM] | Compound
> 10 | CCOc1cc2ncnc(Nc3ccc(F)c(Cl)c3)c2cc1OCC
> 10 | CCOc1cc2ncnc(Nc3cccc(Cl)c3)c2cc1OCC
> 10 | CCOc1cc2ncnc(Nc3cccc(Br)c3)c2cc1OCC
> 10 | COc1cc2ncnc(Nc3cccc(Br)c3)c2cc1OC

Target: T3, Fructose-1,6-bisphosphatase 1 (Sus scrofa, UniProt P00636)
T3 sequence (P00636 whole entry): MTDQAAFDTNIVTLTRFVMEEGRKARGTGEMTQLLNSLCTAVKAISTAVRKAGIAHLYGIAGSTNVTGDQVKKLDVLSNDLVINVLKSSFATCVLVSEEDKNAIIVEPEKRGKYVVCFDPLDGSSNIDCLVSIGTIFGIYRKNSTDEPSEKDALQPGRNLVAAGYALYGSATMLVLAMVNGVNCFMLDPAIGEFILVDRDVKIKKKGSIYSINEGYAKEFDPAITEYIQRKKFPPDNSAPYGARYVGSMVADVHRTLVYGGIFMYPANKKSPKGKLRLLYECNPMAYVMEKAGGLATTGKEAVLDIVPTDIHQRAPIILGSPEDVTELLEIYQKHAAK
Experiment: Compound was evaluated for its concentration required to inhibit the porcine kidney F16BPase

Compound | IC50 [µM]
COc1cc2ncnc(Nc3ccc(F)c(Cl)c3)c2cc1OC | 0.34
COc1cc2ncnc(Nc3cccc(Cl)c3)c2cc1OC [TYRPHOSTIN AG-1478] | > 10
C#Cc1cccc(Nc2ncnc3cc(OC)c(OC)cc23)c1 | 1.6
C#Cc1cc(Nc2ncnc3cc(OC)c(OC)cc23)ccc1F | 0.77

The remaining lines, values ahead:

IC50 [µM] | Compound
3.1 | CCOc1cc2ncnc(Nc3ccc(F)c(Cl)c3)c2cc1OCC
3.9 | CCOc1cc2ncnc(Nc3cccc(Cl)c3)c2cc1OCC
> 10 | CCOc1cc2ncnc(Nc3cccc(Br)c3)c2cc1OCC
> 10 | COc1cc2ncnc(Nc3cccc(Br)c3)c2cc1OC

Organism: Oryctolagus cuniculus
Experiment: Compound was evaluated for its concentration required to inhibit the rabbit liver F16BPase
Assay type: functional

Compound | IC50 [µM]
COc1cc2ncnc(Nc3ccc(F)c(Cl)c3)c2cc1OC | > 10
COc1cc2ncnc(Nc3cccc(Cl)c3)c2cc1OC [TYRPHOSTIN AG-1478] | > 10
C#Cc1cccc(Nc2ncnc3cc(OC)c(OC)cc23)c1 | > 10
C#Cc1cc(Nc2ncnc3cc(OC)c(OC)cc23)ccc1F | > 10

Second part, the compound after the results:

IC50 [µM] | Compound
> 10 | CCOc1cc2ncnc(Nc3ccc(F)c(Cl)c3)c2cc1OCC
> 10 | CCOc1cc2ncnc(Nc3cccc(Cl)c3)c2cc1OCC
> 10 | CCOc1cc2ncnc(Nc3cccc(Br)c3)c2cc1OCC
> 10 | COc1cc2ncnc(Nc3cccc(Br)c3)c2cc1OC

Source: ChEMBL document CHEMBL1134043, “Allosteric inhibition of fructose-1,6-bisphosphatase by anilinoquinazolines” (Bioorg Med Chem Lett, 2001)
